Data from ChEMBL document CHEMBL1150190, “Lyngbyatoxins B and C, two new irritants from Lyngbya majuscula” (J Nat Prod, 1990).

Legend:
[1] = species on record: Mus musculus; experiment: Toxicity in mouse by ear irritant test; assay type: organism-based; details: in vivo
[2] = Displacement of [3H]12-O-tetradecanoyl-phorbol-13-acetate from TPA receptor

C=C[C@@](C)(CCC(O)C(=C)C)c1ccc2c3c(c[nH]c13)C[C@@H](CO)NC(=O)[C@H](C(C)C)N2C (some centres undefined) [LYNGBYATOXI B]
Activity [1]: Toxic
ED50 [2]: 2.2 µM

C=C[C@@](C)(C/C=C/C(C)(C)O)c1ccc2c3c(c[nH]c13)C[C@@H](CO)NC(=O)[C@H](C(C)C)N2C [LYNGBYATOXIN C]
Activity [1]: Toxic
ED50 [2]: 0.2 µM
